# Results from patent US8168651B2, “Protein kinase modulators” (Cylene Pharmaceuticals, Inc., priority 2008, dated 2012).
# pIC50: −log10 of the molar value. Like-named read-outs stand apart in the source and are kept apart here.
# Legend:
# recombinant human PIM1 = recombinant human PIM1 (Homo sapiens (Human), UniProt P11309); assay: PIM-1 kinase activity in cell-free in vitro assay; assay type: biochemical; conditions: for inhibition at 0.5 µM: 500 nM compound, read-out: PIM-1: % inh 500 nM
# [1] = tested on: HCT-116 human colorectal carcinoma cells; assay: Cell-proliferation assay using Alamar Blue dye; assay type: cell-based; conditions: Homo sapiens, read-out: HCT-116 (uM), cell proliferation modulatory activity;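 note: cells exposed to compound for about 4 days, then Alamar Blue added and dye fluorescence read after about 4 h, compared with medium-only control wells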
# [2] = HCT-116, HCT-116, second HCT-116 column (c8)
# Chain of recombinant human PIM1 (P11309 whole entry): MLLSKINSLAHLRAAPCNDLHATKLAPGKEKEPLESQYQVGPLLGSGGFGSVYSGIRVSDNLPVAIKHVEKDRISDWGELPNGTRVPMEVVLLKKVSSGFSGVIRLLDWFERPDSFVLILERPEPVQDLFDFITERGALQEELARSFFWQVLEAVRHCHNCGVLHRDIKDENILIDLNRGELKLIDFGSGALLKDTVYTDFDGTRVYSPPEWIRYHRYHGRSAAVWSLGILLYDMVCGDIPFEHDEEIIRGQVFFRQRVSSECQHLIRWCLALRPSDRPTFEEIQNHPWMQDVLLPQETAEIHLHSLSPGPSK
structure (smiles),measurement,setting,value
O=C(NCCCO)c1ccc2c(c1)nc(NCCCO)c1ccsc12,inhibition at 0.5 µM,recombinant human PIM1; cell-free,-24.7%
same,IC50,"[1]; HCT-116, HCT-116, first column",10 µM
CN(C)CCNc1nc2cc(C#N)ccc2c2ccccc12,inhibition at 0.5 µM,recombinant human PIM1; cell-free,-63.6%
same,IC50,"[1]; HCT-116, HCT-116, first column",0.5 µM
N#Cc1ccc2c(c1)nc(Nc1ccccc1)c1ccccc12,inhibition at 0.5 µM,recombinant human PIM1; cell-free,-65.4%
same,IC50,"[1]; HCT-116, HCT-116, first column",10 µM
c1ccc(Nc2nc3cc(-c4nnn[nH]4)ccc3c3ccccc23)cc1,inhibition at 0.5 µM,recombinant human PIM1; cell-free,15.8%
same,IC50,"[1]; HCT-116, HCT-116, first column",10 µM
Clc1nc2ccccc2c2sccc12,inhibition at 0.5 µM,recombinant human PIM1; cell-free,-22.1%
same,IC50,"[1]; HCT-116, HCT-116, first column",10 µM
O=C(O)CNc1nc2cc(C(=O)O)ccc2c2sccc12,inhibition at 0.5 µM,recombinant human PIM1; cell-free,-26.1%
same,IC50,"[1]; HCT-116, HCT-116, first column",10 µM
O=C(O)c1ccc2c(c1)nc(Nc1nc3ccccc3[nH]1)c1ccsc12,inhibition at 0.5 µM,recombinant human PIM1; cell-free,-40.1%
same,IC50,"[1]; HCT-116, HCT-116, first column",10 µM
O=C(O)c1ccc2c(c1)nc(N1CCCC1)c1ccsc12,inhibition at 0.5 µM,recombinant human PIM1; cell-free,-16%
same,IC50,"[1]; HCT-116, HCT-116, first column",10 µM
CCC(c1ccccc1)c1nc2cc(C(=O)O)ccc2c2sccc12 (stereo not drawn),inhibition at 0.5 µM,recombinant human PIM1; cell-free,35.4%
same,IC50,"[1]; HCT-116, HCT-116, first column",10 µM
N#Cc1ccc2c(c1)nc(OCCCO)c1ccccc12,inhibition at 0.5 µM,recombinant human PIM1; cell-free,3.04%
same,IC50,"[1]; HCT-116, HCT-116, first column",10 µM
OCCCOc1nc2ccccc2c2ccccc12,inhibition at 0.5 µM,recombinant human PIM1; cell-free,7.28%
same,IC50,"[1]; HCT-116, HCT-116, first column",10 µM
OCCCOc1nc2cc(-c3nnn[nH]3)ccc2c2ccccc12,inhibition at 0.5 µM,recombinant human PIM1; cell-free,40.8%
same,IC50,"[1]; HCT-116, HCT-116, first column",10 µM
c1ccc(Nc2nc3ccccc3c3ccccc23)cc1,inhibition at 0.5 µM,recombinant human PIM1; cell-free,-23.9%
same,IC50,"[1]; HCT-116, HCT-116, first column",10 µM
O=C(O)CNc1nc2ccccc2c2ccccc12,inhibition at 0.5 µM,recombinant human PIM1; cell-free,-17.5%
same,IC50,"[1]; HCT-116, HCT-116, first column",10 µM
CN(C)CCNc1nc2cc(-c3nnn[nH]3)ccc2c2ccccc12,inhibition at 0.5 µM,recombinant human PIM1; cell-free,56.9%
same,IC50,"[1]; HCT-116, HCT-116, first column",10 µM
COC(=O)c1ccc2c(c1)nc(Nc1ccccc1)c1ccsc12,inhibition at 0.5 µM,recombinant human PIM1; cell-free,2.59%
same,IC50,"[1]; HCT-116, HCT-116, first column",10 µM
CS(=O)(=O)NC(=O)c1ccc2c(c1)nc(Nc1ccccc1)c1ccsc12,inhibition at 0.5 µM,recombinant human PIM1; cell-free,-15.7%
same,IC50,"[1]; HCT-116, HCT-116, first column",10 µM
COc1ccc(OC)c(Nc2nc3cc(-c4nnn[nH]4)ccc3c3sccc23)c1,inhibition at 0.5 µM,recombinant human PIM1; cell-free,21.8%
c1ccc(Nc2nc3cc(-c4nnn[nH]4)ccc3c3cnccc23)cc1,inhibition at 0.5 µM,recombinant human PIM1; cell-free,33.1%
CN(C)CCNc1nc2cc(-c3nnn[nH]3)ccc2c2cnccc12,inhibition at 0.5 µM,recombinant human PIM1; cell-free,38.1%
FC(F)(F)Oc1cccc(Nc2nc3cc(-c4nnn[nH]4)ccc3c3sccc23)c1,inhibition at 0.5 µM,recombinant human PIM1; cell-free,30.7%
CC(=O)Nc1cccc(Nc2nc3cc(-c4nnn[nH]4)ccc3c3sccc23)c1,inhibition at 0.5 µM,recombinant human PIM1; cell-free,27.1%
Cc1cccc(Nc2nc3cc(-c4nnn[nH]4)ccc3c3sccc23)c1,inhibition at 0.5 µM,recombinant human PIM1; cell-free,58%
same,pIC50,recombinant human PIM1; cell-free,6.41
O=C(O)c1cccc(Nc2nc3cc(-c4nnn[nH]4)ccc3c3sccc23)c1,inhibition at 0.5 µM,recombinant human PIM1; cell-free,58%
same,pIC50,recombinant human PIM1; cell-free,6.19
O=C(O)c1ccc2c(c1)nc(Nc1cccc(Cl)c1)c1ccsc12,inhibition at 0.5 µM,recombinant human PIM1; cell-free,81.1%
same,pIC50,recombinant human PIM1; cell-free,6.41
C#Cc1cccc(Nc2nc3cc(C(=O)O)ccc3c3sccc23)c1,inhibition at 0.5 µM,recombinant human PIM1; cell-free,26%
CCCNC(=O)c1cccc(Nc2nc3cc(-c4nnn[nH]4)ccc3c3sccc23)c1,inhibition at 0.5 µM,recombinant human PIM1; cell-free,47.7%
Fc1cc(Nc2nc3cc(-c4nnn[nH]4)ccc3c3cnccc23)ccc1Cl,inhibition at 0.5 µM,recombinant human PIM1; cell-free,9.3%
O=C(O)c1ccc2c(c1)nc(Nc1ccccc1)c1nc(NC3CCNCC3)ncc12,inhibition at 0.5 µM,recombinant human PIM1; cell-free assay,-2.53%
CCN(CC)CCNc1ncc2c(n1)c(Nc1ccccc1)nc1cc(C(=O)O)ccc12,inhibition at 0.5 µM,recombinant human PIM1; cell-free assay,4.27%
CCOc1ncc2c(n1)c(Nc1cccc(C(F)(F)F)c1)nc1cc(C(=O)O)ccc12,inhibition at 0.5 µM,recombinant human PIM1; cell-free assay,-5%
CC(C)Nc1ncc2c(n1)c(Nc1cccc(Cl)c1)nc1cc(C(=O)O)ccc12,inhibition at 0.5 µM,recombinant human PIM1; cell-free assay,-0.505%
O=C(O)c1ccc2c(c1)nc(Nc1cccc(Cl)c1)c1nc(O)ncc12,inhibition at 0.5 µM,recombinant human PIM1; cell-free assay,3.53%
Cc1ncc2c(n1)c(Nc1cccc(Cl)c1)nc1cc(C(=O)O)ccc12,inhibition at 0.5 µM,recombinant human PIM1; cell-free assay,12.9%
C#Cc1cccc(Nc2nc3cc(C(=O)OC)ccc3c3cnc(NOC)nc23)c1,inhibition at 0.5 µM,recombinant human PIM1; cell-free assay,0.371%
O=C(O)CCNc1ncc2c(n1)c(Nc1cccc(Cl)c1)nc1cc(C(=O)O)ccc12,inhibition at 0.5 µM,recombinant human PIM1; cell-free assay,24.2%
O=C(O)c1ccc2c(c1)nc(Nc1cccc(F)c1)c1nc(NC3CC3)ncc12,inhibition at 0.5 µM,recombinant human PIM1; cell-free assay,59.3%
CN1CCCN(c2nc3cc(C#N)ccc3c3sccc23)CC1,inhibition at 0.5 µM,recombinant human PIM1; cell-free assay,-10%
same,IC50,[1]; [2],2.63 µM
N#Cc1ccc2c(c1)nc(NCCN1CCOCC1)c1ccsc12,inhibition at 0.5 µM,recombinant human PIM1; cell-free assay,-23.8%
same,IC50,[1]; [2],> 10 µM
N#Cc1ccc2c(c1)nc(N1CCN(CCO)CC1)c1ccsc12,inhibition at 0.5 µM,recombinant human PIM1; cell-free assay,-17.6%
same,IC50,[1]; [2],9.38 µM
N#Cc1ccc2c(c1)nc(NCCO)c1ccsc12,inhibition at 0.5 µM,recombinant human PIM1; cell-free assay,-2.91%
same,IC50,[1]; [2],> 10 µM
CN(C)C1CCN(c2nc3cc(C#N)ccc3c3sccc23)C1 (stereo not drawn),inhibition at 0.5 µM,recombinant human PIM1; cell-free assay,-16.5%
same,IC50,[1]; [2],3.86 µM
N#Cc1ccc2c(c1)nc(NCCN1CCCC1)c1ccsc12,inhibition at 0.5 µM,recombinant human PIM1; cell-free assay,-22.4%
same,IC50,[1]; [2],2.2 µM
CN1CCN(c2nc3cc(C(=O)O)ccc3c3cnccc23)CC1,inhibition at 0.5 µM,recombinant human PIM1; cell-free assay,40.1%
same,IC50,[1]; [2],> 10 µM
Cc1cnc(CNC(=O)c2ccc3c(c2)nc(N2CCN(C)CC2)c2ccncc23)cn1,inhibition at 0.5 µM,recombinant human PIM1; cell-free assay,-23.1%
same,IC50,[1]; [2],> 10 µM
CN1CCN(c2nc3cc(C(=O)NNc4ccccn4)ccc3c3sccc23)CC1,inhibition at 0.5 µM,recombinant human PIM1; cell-free assay,-10.9%
same,IC50,[1]; [2],> 10 µM
O=C(O)c1ccc2c(c1)nc(N1CCN(c3cnccn3)CC1)c1ccncc12,inhibition at 0.5 µM,recombinant human PIM1; cell-free assay,-2.36%
COCCOc1cccc(Nc2nc3c(C(N)=O)cccc3c3cnccc23)c1,pIC50,recombinant human PIM1; Table 45,> 6.30
OCc1cccc2c1nc(Nc1cccc(Cl)c1)c1ccncc12,pIC50,recombinant human PIM1; Table 45,> 6.00
O=C(O)c1cccc2c1nc(Nc1cccc(Cl)c1)c1cnccc12,pIC50,recombinant human PIM1; Table 45,< 5.96
CN(C)CCNC(=O)c1cccc2c1nc(Nc1cccc(Cl)c1)c1ccncc12,pIC50,recombinant human PIM1; Table 45,< 5.96
COCCNC(=O)c1cccc2c1nc(Nc1cccc(Cl)c1)c1ccncc12,pIC50,recombinant human PIM1; Table 45,< 5.96
COC(=O)c1cccc2c1nc(Nc1cccc(Cl)c1)c1ccncc12,pIC50,recombinant human PIM1; Table 45,< 5.96
CN(C)C(=O)c1cccc2c1nc(Nc1cccc(Cl)c1)c1ccncc12,pIC50,recombinant human PIM1; Table 45,< 5.96
O=C(NCc1ccccc1)c1cccc2c1nc(Nc1cccc(Cl)c1)c1ccncc12,pIC50,recombinant human PIM1; Table 45,< 5.96
O=C(c1cccc2c1nc(Nc1cccc(Cl)c1)c1ccncc12)N1CCOCC1,pIC50,recombinant human PIM1; Table 45,< 5.96
O=C(NC1CC1)c1cccc2c1nc(Nc1cccc(Cl)c1)c1ccncc12,pIC50,recombinant human PIM1; Table 45,< 5.96
O=C(Nc1ccccc1)c1cccc2c1nc(Nc1cccc(Cl)c1)c1ccncc12,pIC50,recombinant human PIM1; Table 45,< 5.96
CONC(=O)c1cccc2c1nc(Nc1cccc(Cl)c1)c1ccncc12,pIC50,recombinant human PIM1; Table 45,< 5.96
NNC(=O)c1cccc2c1nc(Nc1cccc(Cl)c1)c1ccncc12,pIC50,recombinant human PIM1; Table 45,> 5.30
Clc1cccc(Nc2nc3c(-c4nnco4)cccc3c3cnccc23)c1,pIC50,recombinant human PIM1; Table 45,< 5.96
N#Cc1cccc2c1nc(Nc1cccc(Cl)c1)c1ccncc12,pIC50,recombinant human PIM1; Table 45,< 5.96
NCc1ccc(Nc2nc3c(-c4nnc[nH]4)cccc3c3cnccc23)c(Cl)c1,pIC50,recombinant human PIM1,> 7.00
CN1CCN(c2ccc(Nc3nc4c(-c5nnc[nH]5)cccc4c4cnccc34)cc2)CC1,pIC50,recombinant human PIM1,> 6.30
c1cc(-c2nnc[nH]2)c2nc(N3CCOCC3)c3ccncc3c2c1,pIC50,recombinant human PIM1,5.40
COC(=O)c1cccc2c1nc(Cl)c1ccncc12 [drawing 2270],pIC50,recombinant human PIM1; Table 45,< 5.96
O=C(O)c1cccc2c1nc(Nc1cccc(Cl)c1)c1ccncc12 [drawing 2271],pIC50,recombinant human PIM1; Table 45,< 5.96
COC(=O)c1cccc2c1nc(Nc1ccccc1)c1ccncc12 [drawing 2272],pIC50,recombinant human PIM1; Table 45,< 5.96
O=C(O)c1cccc2c1nc(Nc1ccccc1)c1ccncc12 [drawing 2273],pIC50,recombinant human PIM1; Table 45,< 5.96
CNC(=O)c1cccc2c1nc(Nc1cccc(Cl)c1)c1ccncc12 [drawing 2277],pIC50,recombinant human PIM1; Table 45,< 5.96
